{"source": "ChEMBL document CHEMBL1201862", "about": "“PubChem BioAssay data set” (2004)", "key": {"[1]": {"assay": "NIH3T3 cell viability loss – ATP luminescence, mouse fibroblasts, counter-screen, dose response (AID 2010);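 also: cells exposed to compound for about 90 hours before reading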", "assay_type": "functional, cell-based"}, "[2]": {"target": "T1, Mannose-6-phosphate isomerase (Homo sapiens, UniProt P34949)", "T1 sequence (P34949 whole entry)": "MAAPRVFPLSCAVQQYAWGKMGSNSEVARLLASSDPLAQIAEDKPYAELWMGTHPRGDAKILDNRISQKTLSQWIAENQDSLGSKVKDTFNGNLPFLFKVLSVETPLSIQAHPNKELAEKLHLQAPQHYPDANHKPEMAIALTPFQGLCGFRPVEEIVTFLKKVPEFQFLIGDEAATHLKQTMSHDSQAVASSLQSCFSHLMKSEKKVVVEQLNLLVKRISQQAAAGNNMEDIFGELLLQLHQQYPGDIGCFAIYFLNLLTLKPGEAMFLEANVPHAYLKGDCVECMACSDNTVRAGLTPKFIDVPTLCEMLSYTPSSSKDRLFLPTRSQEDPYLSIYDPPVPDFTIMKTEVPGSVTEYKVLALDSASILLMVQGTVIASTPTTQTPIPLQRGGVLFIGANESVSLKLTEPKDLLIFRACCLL", "assay": "MPI enzyme activity inhibition – biochemical, fluorescence intensity, coupled assay, primary screen (AID 1209)"}, "[3]": {"assay": "Trypanosoma cruzi growth suppression in host cells – NIH3T3 host cells, beta-gal luminescence, confirmation (AID 2044);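 also: intracellular parasites grown in NIH/3T3 mouse fibroblasts as host cells; luminescent beta-galactosidase reporter signal from transgenic T. cruzi replicating inside host cells; inhibitors lower the luminescence signal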", "assay_type": "functional, cell-based"}, "[4]": {"target": "T1, Mannose-6-phosphate isomerase", "assay": "phosphomannose isomerase inhibition – biochemical, fluorescence intensity, confirmation (AID 1535)"}, "[5]": {"target": "Eukaryotic translation initiation factor 4E (Mus musculus, UniProt P63073)", "sequence (P63073 whole entry)": "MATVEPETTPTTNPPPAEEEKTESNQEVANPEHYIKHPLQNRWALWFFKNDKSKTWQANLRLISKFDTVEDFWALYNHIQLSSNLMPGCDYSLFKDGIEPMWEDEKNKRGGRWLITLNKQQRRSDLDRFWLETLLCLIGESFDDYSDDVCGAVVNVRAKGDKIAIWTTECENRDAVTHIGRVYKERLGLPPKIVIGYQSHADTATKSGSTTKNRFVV", "assay": "blockers of eIF4G binding by eIF4E – biochemical, TR-FRET, dose response (AID 855);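 also: potency for disrupting eIF4E binding to eIF4GI seen as loss of FRET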", "assay_type": "functional"}, "Phosphomannomutase 2": {"target": "Phosphomannomutase 2 (Homo sapiens, UniProt O15305)", "sequence (O15305 whole entry)": "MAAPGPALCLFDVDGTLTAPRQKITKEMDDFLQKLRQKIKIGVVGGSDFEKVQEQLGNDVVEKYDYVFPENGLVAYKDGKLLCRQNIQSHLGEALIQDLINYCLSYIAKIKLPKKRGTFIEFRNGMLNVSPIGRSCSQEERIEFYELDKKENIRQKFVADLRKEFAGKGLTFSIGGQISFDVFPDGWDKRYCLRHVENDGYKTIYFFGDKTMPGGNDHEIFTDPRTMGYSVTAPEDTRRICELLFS", "assay": "Counter screen SAR assay for PMM2 inhibitors via a fluorescence intensity assay. [Related pubchem assays (depositor defined):AID1545, AID1574]"}, "[6]": {"target": "DNA dC->dU-editing enzyme APOBEC-3G (Homo sapiens, UniProt Q9HC16)", "sequence (Q9HC16 whole entry)": "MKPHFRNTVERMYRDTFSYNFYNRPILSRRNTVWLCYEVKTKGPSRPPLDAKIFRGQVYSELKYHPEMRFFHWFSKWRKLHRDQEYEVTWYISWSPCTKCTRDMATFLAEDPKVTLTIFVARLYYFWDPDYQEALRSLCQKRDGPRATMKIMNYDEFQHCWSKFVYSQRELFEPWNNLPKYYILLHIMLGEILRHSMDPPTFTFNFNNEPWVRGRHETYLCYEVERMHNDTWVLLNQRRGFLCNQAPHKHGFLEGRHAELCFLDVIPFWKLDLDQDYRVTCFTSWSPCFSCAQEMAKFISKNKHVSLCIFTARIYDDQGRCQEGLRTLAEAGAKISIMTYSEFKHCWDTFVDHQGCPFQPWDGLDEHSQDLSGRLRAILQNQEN", "assay": "Dose Response confirmation of small molecule APOBEC3G DNA Deaminase Inhibitors via a fluorescence-based single-stranded DNA deaminase assay. [Related pubchem assays (depositor defined):AID493012, AID493028]", "assay_type": "functional"}, "[7]": {"target": "Melanin-concentrating hormone receptor 1 (Homo sapiens, UniProt Q99705)", "sequence (Q99705 whole entry)": "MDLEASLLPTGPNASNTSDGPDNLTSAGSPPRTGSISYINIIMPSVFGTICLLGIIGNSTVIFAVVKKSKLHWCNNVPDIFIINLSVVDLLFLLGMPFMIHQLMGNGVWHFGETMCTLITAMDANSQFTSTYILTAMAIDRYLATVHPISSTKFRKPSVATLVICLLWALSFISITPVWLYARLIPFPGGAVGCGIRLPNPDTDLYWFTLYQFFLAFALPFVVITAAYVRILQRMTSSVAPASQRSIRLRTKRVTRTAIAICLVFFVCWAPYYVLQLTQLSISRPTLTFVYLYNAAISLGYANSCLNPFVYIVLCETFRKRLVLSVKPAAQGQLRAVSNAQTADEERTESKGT", "assay": "Late-stage fluorescence-based counterscreen for antagonists of the G-protein coupled receptor 7 (GPR7): cell-based dose response assay to identify antagonists of the melanin-concentrating hormone receptor 1 (MCHR1). [Related pubchem assays (depositor defined):AID1861, AID1880, AID1952, AID2148, AID2251, AID2257, AID485339]", "assay_type": "functional"}, "[8]": {"target": "T2, Endoribonuclease toxin MazF (Escherichia coli K-12, UniProt P0AE70)", "T2 sequence (P0AE70 whole entry)": "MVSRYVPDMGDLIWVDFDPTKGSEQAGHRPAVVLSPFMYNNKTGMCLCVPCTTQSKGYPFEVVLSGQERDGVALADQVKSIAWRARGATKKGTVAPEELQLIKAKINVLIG", "assay": "activation of MazEF endoribonuclease cleavage – biochemical, fluorescence, single-stranded RNA substrate, uHTS hits, dose response (AID 588481)", "assay_type": "functional"}, "Streptokinase A": {"target": "T3, Streptokinase A (Streptococcus pyogenes serotype M1, UniProt P10520)", "T3 sequence (P10520 whole entry)": "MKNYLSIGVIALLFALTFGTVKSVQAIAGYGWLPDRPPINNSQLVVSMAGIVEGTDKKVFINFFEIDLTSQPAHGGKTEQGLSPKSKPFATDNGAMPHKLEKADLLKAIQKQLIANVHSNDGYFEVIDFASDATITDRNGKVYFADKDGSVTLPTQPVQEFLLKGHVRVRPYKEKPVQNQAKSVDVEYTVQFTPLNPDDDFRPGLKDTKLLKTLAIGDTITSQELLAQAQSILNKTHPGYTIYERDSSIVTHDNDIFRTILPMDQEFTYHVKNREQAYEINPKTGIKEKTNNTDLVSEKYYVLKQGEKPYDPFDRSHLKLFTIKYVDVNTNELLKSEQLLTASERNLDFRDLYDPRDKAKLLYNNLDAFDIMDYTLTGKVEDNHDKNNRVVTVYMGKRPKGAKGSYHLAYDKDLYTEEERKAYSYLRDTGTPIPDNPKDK", "assay": "viability-normalized secreted streptokinase activity reduction – plasminogen activation absorbance, OD405, dose response (AID 1914)", "assay_type": "functional, Streptococcus pyogenes M1 GAS"}, "Salmon testes DNA": {"tested_on": "Salmon testes DNA", "assay": "acridine orange-DNA binding displacement – biochemical, fluorescence polarization, cherry-picked samples, set 2, artefact control for KSHV LANA DNA-binding inhibitor project, dose response (AID 504727)", "parameters": "species or system Salmonidae"}, "Phospholipase A2": {"target": "Phospholipase A2 (Homo sapiens, UniProt P04054)", "sequence (P04054 whole entry)": "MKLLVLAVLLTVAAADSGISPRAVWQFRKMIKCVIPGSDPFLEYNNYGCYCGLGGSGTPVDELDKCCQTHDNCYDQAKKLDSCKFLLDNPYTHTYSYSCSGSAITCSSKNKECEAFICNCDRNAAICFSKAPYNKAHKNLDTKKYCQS", "assay_type": "functional"}, "[9]": {"tested_on": "Streptococcus sp. 'group A'", "assay": "Streptococcus pyogenes SK(-)GAS viability under kanamycin – luminescence, BacTiterGlo, confirmation, counter-screen for streptokinase expression inhibitor project, dose response (AID 1900)", "assay_type": "functional, organism-based"}, "Cysteine protease ATG4B": {"target": "T4, Cysteine protease ATG4B (Homo sapiens, UniProt Q9Y4P1)", "T4 sequence (Q9Y4P1 whole entry)": "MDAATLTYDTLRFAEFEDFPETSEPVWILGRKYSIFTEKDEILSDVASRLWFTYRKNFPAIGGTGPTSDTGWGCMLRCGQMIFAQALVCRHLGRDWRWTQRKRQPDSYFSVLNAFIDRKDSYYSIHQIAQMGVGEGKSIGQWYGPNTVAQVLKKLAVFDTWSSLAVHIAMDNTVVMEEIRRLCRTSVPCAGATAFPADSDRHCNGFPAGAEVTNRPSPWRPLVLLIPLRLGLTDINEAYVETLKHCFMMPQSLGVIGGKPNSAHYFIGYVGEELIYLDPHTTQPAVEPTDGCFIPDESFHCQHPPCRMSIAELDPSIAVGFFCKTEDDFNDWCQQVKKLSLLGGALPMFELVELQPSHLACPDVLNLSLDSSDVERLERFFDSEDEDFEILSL", "assay_type": "functional"}, "Streptococcus": {"tested_on": "Streptococcus", "assay": "GAS UMAA2166 growth inhibition – luminescence, BacTiterGlo, counter-screen for streptokinase expression inhibitor project, dose response (AID 1915);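 also: potency for reduction of bacterial viability or growth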", "assay_type": "functional, organism-based"}, "[10]": {"target": "FAD-linked sulfhydryl oxidase ALR (Homo sapiens, UniProt P55789)", "sequence (P55789 whole entry)": "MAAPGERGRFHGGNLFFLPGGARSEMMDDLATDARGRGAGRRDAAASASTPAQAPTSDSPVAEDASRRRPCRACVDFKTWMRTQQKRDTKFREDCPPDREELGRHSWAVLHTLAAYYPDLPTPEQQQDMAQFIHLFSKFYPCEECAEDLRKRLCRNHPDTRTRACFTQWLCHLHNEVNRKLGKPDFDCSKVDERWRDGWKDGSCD", "assay": "ALR-catalysed DTT oxidation blockers – biochemical, H2O2 detection, luminescence, cherry-pick, dose response (AID 493248)"}, "[11]": {"target": "T2, Endoribonuclease toxin MazF", "assay": "substrate-only fluorescence increase artefacts – biochemical, single-stranded RNase substrate, counter-screen for MazEF activator project, dose response (AID 588502)", "assay_type": "functional"}, "Vero [12]": {"tested_on": "Vero", "assay": "Vero 76 cell viability after compound exposure – Vero 76 cells, synthesized analogs, cytotoxicity control for West Nile virus antiviral project, SAR follow-up (AID 2414)", "assay_type": "functional", "conditions": "Chlorocebus sabaeus"}, "[13]": {"assay": "A Cell Based Assay for the Identification of Probe candidate Compounds with Anti- Venezuelan Equine Encephalitis virus. [Related pubchem assays: 2409, 2419, 1621, 2238, 2405, 2024, 2065, 2402, 2414, 1635, 1650, 2244 ]", "assay_type": "functional"}, "Vero [14]": {"tested_on": "Vero", "assay": "host cell viability loss, Vero E6 – synthesized analogs, cytotoxicity control for West Nile virus antiviral project, SAR follow-up (AID 2244)", "assay_type": "functional", "conditions": "Chlorocebus sabaeus"}, "[15]": {"target": "T5, Ubiquitin-conjugating enzyme E2 N (Homo sapiens, UniProt P61088)", "T5 sequence (P61088 whole entry)": "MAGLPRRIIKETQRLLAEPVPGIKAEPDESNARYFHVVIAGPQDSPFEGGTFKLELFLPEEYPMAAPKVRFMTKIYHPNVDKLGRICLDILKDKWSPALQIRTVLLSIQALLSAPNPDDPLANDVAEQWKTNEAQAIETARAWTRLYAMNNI", "assay_type": "functional"}, "Vero [16]": {"tested_on": "Vero", "assay": "antiviral protection of cells from WNV – synthesized analogs, SAR follow-up (AID 2238)", "assay_type": "functional, cell-based", "conditions": "Chlorocebus sabaeus"}, "Vero [17]": {"tested_on": "Vero", "assay": "Vero cell viability after compound exposure – synthesized analogs, set II, cytotoxicity control for West Nile virus antiviral project, SAR follow-up (AID 2402)", "assay_type": "functional", "conditions": "Chlorocebus sabaeus"}, "[18]": {"assay": "HRAS-V12 fibroblast viability reduction – cell-based, Alamar Blue, dry powder, Ras selective lethality project, primary screen (AID 493045)", "assay_type": "functional", "conditions": "BJeLR"}, "[19]": {"assay": "DRD BJ cell killing, Ras synthetic lethality – DRD BJ fibroblasts, HRASV12, dry powder, dose response (AID 493049)", "assay_type": "functional, cell-based"}, "[20]": {"assay": "BJeH cell viability loss – BJeH cells, dry powder, counter-screen for Ras selective lethality project, dose response (AID 493054)", "assay_type": "functional, cell-based"}, "[21]": {"assay": "BJeHLT cell viability loss – BJeHLT cells, dry powder, counter-screen for Ras selective lethality project, dose response (AID 493052)", "assay_type": "functional, cell-based", "conditions": "Homo sapiens"}, "HeLa": {"tested_on": "HeLa", "assay": "viability loss in HeLa cells – cell-based, 24 h, cherry-picked samples, cytotoxicity control, dose response (AID 504726);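 also: potency for cytotoxicity as loss of luminescence signal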", "assay_type": "functional", "conditions": "Homo sapiens"}}, "note": "The source made the active and inactive calls."}
{"smiles": "COc1ccc2nc(N=C(S)N(C)C)sc2c1", "values": [{"measurement": "EC50", "setting": "[1]", "result": "> 60 µM (inconclusive)"}, {"measurement": "IC50", "setting": "[2]", "result": "8.33 µM (active)"}, {"measurement": "EC50", "setting": "[3]", "result": "2.03 µM (active)"}, {"measurement": "IC50", "setting": "[4]", "result": "46.1 µM (active)"}, {"measurement": "IC50", "setting": "[5]", "result": "> 64 µM (inactive)"}, {"measurement": "IC50", "setting": "Phosphomannomutase 2", "result": "> 100 µM (inactive)"}, {"measurement": "IC50", "setting": "[6]", "result": "40.8 µM (active)"}]}
{"smiles": "COc1ccc(Oc2c(Cl)cnn(Cc3ccc(C)cc3)c2=O)cc1", "values": [{"measurement": "IC50", "setting": "[7]", "result": "6.3 µM (active)"}]}
{"smiles": "O=C(O)C(c1ccccc1)N1C(=O)/C(=C\\c2ccc(-c3cccc(Cl)c3)o2)SC1=S", "note": "(stereo not drawn)", "values": [{"measurement": "EC50", "setting": "[8]", "result": "50.3 µM (inactive)"}, {"measurement": "EC50", "setting": "Streptokinase A", "result": "1.37 µM (active)"}, {"measurement": "AC50", "setting": "Salmon testes DNA", "result": "40.7 µM (active)"}, {"measurement": "IC50", "setting": "Phospholipase A2", "result": "11.2 µM (active)"}, {"measurement": "EC50", "setting": "[9]", "result": "2.37 µM (active)"}, {"measurement": "IC50", "setting": "Cysteine protease ATG4B", "result": "4.41 µM (active)"}, {"measurement": "EC50", "setting": "Streptococcus", "result": "2.23 µM (active)"}, {"measurement": "AC50", "setting": "[10]", "result": "3.54 µM (active)"}, {"measurement": "EC50", "setting": "[11]", "result": "97.1 µM (inactive)"}]}
{"smiles": "CC1CC(C)CN(CCCNC(=O)c2cc3c(s2)-c2ccccc2OC3)C1", "note": "(stereo not drawn)", "values": [{"measurement": "CC50", "setting": "Vero [12]", "result": "29.4 µM (active)"}, {"measurement": "IC50", "setting": "[13]", "result": "15.5 µM (active)"}, {"measurement": "CC50", "setting": "Vero [14]", "result": "12.4 µM (active)"}, {"measurement": "IC50", "setting": "[15]", "result": "> 20 µM (inactive)"}, {"measurement": "IC50", "setting": "Vero [16]", "result": "> 40 µM (active)"}, {"measurement": "CC50", "setting": "Vero [17]", "result": "11.2 µM (active)"}]}
{"smiles": "COc1ccc(N(C(=O)CCl)C(C(=O)NCS(=O)(=O)c2ccc(C)cc2)c2cccs2)cc1Cl", "note": "(stereo not drawn)", "values": [{"measurement": "AC50", "setting": "[18]", "result": "0.089 µM (active)"}, {"measurement": "AC50", "setting": "[19]", "result": "0.083 µM (active)"}, {"measurement": "AC50", "setting": "[20]", "result": "0.347 µM (active)"}, {"measurement": "AC50", "setting": "[21]", "result": "0.208 µM (active)"}]}
{"smiles": "CC(=O)N/C(=C/c1ccc(OS(=O)(=O)c2ccc(C)cc2)cc1)C(=O)Nc1ccc(C(=O)O)cc1", "values": [{"measurement": "AC50", "setting": "HeLa", "result": "132 µM (active)"}]}
